Tests used:
Assay in all cases: relative viability (nuclei count vs DMSO), 5 days (fraction); higher = more cells survive
4EGI-1 + Pemetrexed = compound: O=C(O)C(Cc1ccccc1[N+](=O)[O-])=NNc1nc(-c2ccc(Cl)c(Cl)c2)cs1 (mixture of isomers) [4EGI-1] + Nc1nc2[nH]cc(CCc3ccc(C(=O)N[C@@H](CCC(=O)O)C(=O)O)cc3)c2c(=O)[nH]1 [Pemetrexed] (partner 0.2 µM)
Outline: (§1)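 After 5 days of treatment, lung cancer cells in 1536-well plates were fixed and stained in a single step (final 0.05% Triton X-100, 1% formaldehyde, 1 ug/ml Hoechst) and their nuclei counted on 4× images. Treatment had been applied by pin tool the day after seeding as one drug alone or as a fixed anchor-drug dose with five library-drug doses (not always all listed) in √10 steps. Relative viability is the nuclei count of treated wells divided by that of vehicle wells, and values are medians of duplicate plates.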

XMD8-85 + OSI-027 = compound: CN1CCN(CC1)C2=CC(=C(C=C2)NC3=NC=C4C(=N3)N(C5=CC=CC=C5C(=O)N4C)C)OC [XMD8-85] + COc1cccc2cc(-c3nc([C@H]4CC[C@H](C(=O)O)CC4)n4ncnc(N)c34)[nH]c12 [OSI-027] (partner 0.5 µM)
Outline: as §1

4EGI-1 = compound: O=C(O)C(Cc1ccccc1[N+](=O)[O-])=NNc1nc(-c2ccc(Cl)c(Cl)c2)cs1 (mixture of isomers) [4EGI-1]
Outline: (§2)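 After an overnight hold at 37 °C, lung cancer cell lines in 1536-well plates were pinned with five library-drug doses (not always all listed), each √10 from the next, on vehicle-anchored plates. The cells stayed 5 days without fresh medium, then a one-step fix, permeabilisation and Hoechst stain preceded 4× imaging and MetaXpress nuclear counts. A plate passed only with control CV under 25% and at least one doubling. Viability is the median, over plates, of treated-well nuclei relative to vehicle-well nuclei.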

XMD8-85 = compound: CN1CCN(CC1)C2=CC(=C(C=C2)NC3=NC=C4C(=N3)N(C5=CC=CC=C5C(=O)N4C)C)OC [XMD8-85]
Outline: as §2

Cell Line	relative viability (4EGI-1 + Pemetrexed; first compound 0.5 µM)	relative viability (4EGI-1 + Pemetrexed; first compound 1.581 µM)	relative viability (4EGI-1 + Pemetrexed; first compound 5 µM)	relative viability (4EGI-1 + Pemetrexed; first compound 15.81 µM)	relative viability (4EGI-1 + Pemetrexed; first compound 50 µM)	relative viability (XMD8-85 + OSI-027; first compound 0.08 µM)	relative viability (XMD8-85 + OSI-027; first compound 0.253 µM)	relative viability (XMD8-85 + OSI-027; first compound 2.53 µM)	relative viability (XMD8-85 + OSI-027; first compound 8 µM)	relative viability (4EGI-1; 0.5 µM)	relative viability (4EGI-1; 1.581 µM)	relative viability (4EGI-1; 5 µM)	relative viability (4EGI-1; 15.81 µM)	relative viability (4EGI-1; 50 µM)	relative viability (XMD8-85; 0.08 µM)	relative viability (XMD8-85; 0.253 µM)	relative viability (XMD8-85; 0.8 µM)	relative viability (XMD8-85; 2.53 µM)	relative viability (XMD8-85; 8 µM)	relative viability (XMD8-85 + OSI-027; first compound 0.8 µM)
NCI-H2342	0.884	0.723	0.813	0.978	0.702	0.606	0.605	0.594	0.641	1.13	0.889	0.989	1.03	0.869	0.873	1.07	1.02	1.02	1.06	–
NCI-H1563	0.905	0.221	0.968	0.747	0.81	0.819	–	0.715	0.789	1.1	0.875	0.976	0.893	0.625	1.06	0.925	0.904	0.951	0.88	0.755
PC-14	0.135	–	0.159	0.185	0.0861	0.835	0.971	–	0.373	1.01	–	1.05	0.341	0.395	0.996	0.906	0.984	1.03	0.587	0.776
NCI-H647	0.198	0.179	0.206	0.156	0.087	0.568	0.681	0.602	0.685	1.01	–	1.1	0.855	0.446	0.991	0.912	1.01	1.06	0.758	0.667
201T	0.338	0.368	0.387	0.334	0.348	0.88	0.824	0.367	0.493	1.05	0.955	1.05	0.965	0.806	1	0.983	0.986	0.978	0.757	0.398
PC-3 [JPC-3]	1.09	–	1.21	0.491	0.333	0.769	0.754	0.814	0.71	1.01	0.991	1	–	0.691	1.06	1.03	0.993	1.11	0.942	0.698
HCC-827	0.27	0.232	0.269	–	0.228	0.831	0.789	0.939	1	1.02	0.923	1.07	–	0.922	1.03	1.04	1.01	1.08	1.04	0.714
NCI-H1395	0.878	–	1.12	0.917	0.421	0.754	0.64	0.664	0.489	1.02	–	1.2	0.929	0.614	0.893	0.884	0.889	1.01	0.561	0.667
EPLC-272H	0.372	0.304	0.322	0.29	0.245	0.282	0.251	0.305	0.27	1.07	0.659	1.12	0.713	0.235	0.937	1.07	0.885	0.876	0.608	0.266
NCI-H2087	0.651	0.648	0.637	0.637	0.481	0.612	0.586	0.686	0.552	1.24	1.05	0.975	0.694	0.256	1.07	0.984	1.09	1.05	0.811	0.582
HARA	0.266	0.273	0.333	0.238	0.223	0.467	0.574	0.478	0.229	1.07	1	1.07	0.765	0.257	0.95	0.976	0.902	1.03	0.611	0.523
UMC-11	0.841	0.792	0.863	0.805	0.52	0.457	0.461	0.436	0.371	1.13	1.11	1.01	0.986	0.403	1.03	0.982	1.11	0.964	0.739	0.521
NCI-H2170	0.259	0.256	0.247	0.256	0.265	0.676	0.685	–	0.613	0.986	0.942	0.992	0.853	0.606	1.03	1.09	1.01	1.12	0.993	0.739
BEN	0.814	0.785	0.772	0.622	0.432	0.439	0.344	0.264	0.307	1.15	1.07	1.06	0.98	0.728	1.03	0.956	0.901	0.7	0.523	0.274
EKVX	0.418	–	0.407	0.325	0.368	0.746	0.872	0.73	–	1.05	0.746	1.04	0.698	0.859	0.966	1.05	1.02	1.19	0.863	0.661
NCI-H1755	0.424	0.428	0.417	0.561	0.351	0.677	0.787	–	0.531	1.04	1.04	0.957	0.896	0.622	1.02	1.08	0.96	1.02	1.03	0.645

Cell Line	relative viability (4EGI-1 + Pemetrexed; first compound 0.5 µM)	relative viability (4EGI-1 + Pemetrexed; first compound 1.581 µM)	relative viability (4EGI-1 + Pemetrexed; first compound 5 µM)	relative viability (4EGI-1 + Pemetrexed; first compound 15.81 µM)	relative viability (4EGI-1 + Pemetrexed; first compound 50 µM)	relative viability (XMD8-85 + OSI-027; first compound 0.08 µM)	relative viability (XMD8-85 + OSI-027; first compound 0.253 µM)	relative viability (XMD8-85 + OSI-027; first compound 2.53 µM)	relative viability (XMD8-85 + OSI-027; first compound 8 µM)	relative viability (4EGI-1; 0.5 µM)	relative viability (4EGI-1; 1.581 µM)	relative viability (4EGI-1; 5 µM)	relative viability (4EGI-1; 15.81 µM)	relative viability (4EGI-1; 50 µM)	relative viability (XMD8-85; 0.08 µM)	relative viability (XMD8-85; 0.253 µM)	relative viability (XMD8-85; 0.8 µM)	relative viability (XMD8-85; 2.53 µM)	relative viability (XMD8-85; 8 µM)	relative viability (XMD8-85 + OSI-027; first compound 0.8 µM)
NCI-H2126	0.793	0.712	0.681	0.596	0.537	0.603	0.696	0.855	0.624	1.05	0.937	1.05	0.837	0.79	0.96	1.02	1.03	1.11	0.821	0.739
NCI-H1651	0.599	0.576	0.636	0.52	0.412	0.752	0.695	0.647	0.638	1.03	0.906	1.01	0.95	0.753	1.06	0.983	0.978	0.959	0.926	0.676
NCI-H2228	0.377	0.472	0.367	0.338	0.164	0.544	0.879	0.6	0.336	1.26	1.25	0.939	0.951	0.294	0.894	1.06	1	0.995	0.604	0.686
NCI-H460	0.0637	0.0738	0.0637	0.0604	0.0616	0.557	0.626	0.731	0.239	1.03	–	1.06	0.847	0.25	0.998	1.01	1.02	0.997	0.651	0.901
NCI-H2347	0.438	0.407	0.452	0.414	0.413	0.447	0.382	0.578	0.454	1.14	0.965	1.02	1.03	0.823	1.03	0.973	1.04	1.03	0.809	0.421
EMC-BAC-2	0.418	–	0.466	0.482	0.323	0.358	0.385	0.404	0.313	1.07	–	1.07	0.976	0.538	1.04	1.03	0.956	1.01	0.778	0.368
NCI-H1437	0.335	0.312	0.313	0.271	0.191	0.862	0.876	0.852	0.595	1.04	0.969	0.947	0.592	0.326	1	1.01	1.01	0.99	0.747	0.902
NCI-H650	0.966	–	1.06	0.973	0.725	0.564	0.527	0.492	0.338	1.12	–	1.03	0.959	0.753	0.989	1.01	0.948	0.841	0.556	0.467
NCI-H2009	1.01	1	1.04	0.951	0.805	0.589	0.704	0.508	0.324	1.05	1.02	1.07	1.02	0.24	0.967	0.987	1	0.97	0.605	0.638
NCI-H1944	0.683	–	0.668	0.586	0.331	0.391	0.442	0.514	0.297	1.03	–	0.996	0.738	0.574	0.873	0.993	1.02	1.22	0.973	0.461
NCI-H1734	0.403	0.433	0.464	0.441	0.362	0.579	0.664	0.699	0.425	1.06	0.949	1.14	0.831	0.353	0.946	0.988	1.11	1.08	0.758	0.609
SK-LU-1	0.932	1.02	0.992	1.06	0.319	0.287	0.383	0.365	0.297	1.12	1.11	1.14	0.998	0.58	0.921	1.07	1.08	1.06	0.96	–
NCI-H1915	0.513	0.407	0.451	0.488	0.263	0.622	0.648	0.672	0.507	1.02	0.738	1.05	0.972	0.633	0.975	1	1.01	1.03	0.883	0.651
SW 1573	0.963	0.742	0.794	0.329	0.126	0.566	0.61	0.607	0.327	1.24	0.862	1.03	0.673	0.445	1.02	1.1	1.08	0.982	–	0.669
NCI-H661	0.939	0.834	0.92	0.761	0.334	0.636	0.709	0.806	0.515	0.975	0.911	0.974	0.583	0.467	1	1.01	0.963	1.05	0.903	0.775
CAL-12T	1.21	–	1.25	1.14	0.86	0.556	0.735	0.409	0.235	1.03	–	0.963	0.878	0.518	0.936	1.06	0.871	0.908	0.654	0.693

From the supplement of paper PMC10307832
